# In patent US10647680B2, “Urea compound, preparation method therefor and medical use thereof” (Ancureall Pharmaceutical (Shanghai) Co., Ltd., priority 2016, dated 2020):
# Where a name gives a salt, the structure may show the parent alone. Read-outs that look alike come from different tables or passages of the source.
# Assays:
# Solubility test = format: physicochemical; conditions: in water at 25° C.±2° C.
# Method: The fine powder of the test sample was weighed into an appropriate amount of water at 25° C.±2° C. and shaken vigorously for 30 seconds every 5 minutes so that it was fully dissolved within 30 minutes. If no visible solute particles were observed, it was considered completely dissolved. “Readily soluble” means that 1 g of the test sample could be dissolved in 1-10 ml of water; and “soluble” means that 1 g of the test sample could be dissolved in 10-30 ml of water; “slightly soluble” means that 1 g of the test sample could be dissolved in 30-100 ml of water; and “sparingly soluble” means that 1 g of the test sample could be dissolved in 100-1,000 ml of water; “nearly insoluble or insoluble” means that 1 g of the test sample could not be completely dissolved in 10,000 ml of water.
# [1] = Stability test: high temperature test (60° C.); format: physicochemical; conditions: exposed at 60° C. for 10 days, HPLC
# Method: The test samples were placed into an integrated drug stability test chamber (YSEI) in an exposed way at 60° C. for 10 days. Samples were taken on the 5th and 10th days and tested according to the drug stability test indices.
# (§1) An appropriate amount of test samples was taken and dissolved in acetonitrile-water (1:1), and quantitatively diluted to a solution of about 0.3 mg/ml. 20 ul of solution was injected into a liquid chromatograph (Agilent 1260 Infinity), the chromatogram was then recorded and calculated according to the percentage area method. The mobile phase was a phosphate buffer and acetonitrile aqueous solution, and then a gradient elution was carried out.
# [2] = Stability test: intense light test (4500LX); format: physicochemical; conditions: 4500LX±500LX light for 10 days, HPLC
# Method: The test samples were placed into an integrated drug stability test chamber (YSEI) in an exposed way under 4500LX±500LX light for 10 days. Samples were taken on the 5th and 10th days and tested according to the drug stability test indices.
# as §1
# [3] = Stability test: high humidity test (90%); format: physicochemical; conditions: 25° C., relative humidity 90%±5%, 10 days, HPLC
# Method: The test samples were placed into an integrated drug stability test chamber (YSEI) in an exposed way at 25° C. and relative humidity of 90%±5% for 10 days. Samples were taken on the 5th and 10th days and tested according to the drug stability test indices.
# as §1
# [4] = system: MV4-11 (FLT3 ITD+/+ mutant type); test: In vitro growth inhibition (GI50), MV4-11; format: cell-based, human; conditions: Homo sapiens, MV4-11; Cell lines of leukemia; read-out: GI 50 MV4-11 FLT3 (ITD +/+)
# [5] = system: MOLM-13 (FLT3 ITD+/− mutant type); test: In vitro growth inhibition (GI50), MOLM-13; format: cell-based, human; conditions: Homo sapiens, MOLM-13; Cell lines of leukemia; read-out: GI 50 MOLM-13 FLT3 (ITD+/−)
# RS4; 11 (FLT3 wild type) = test: In vitro growth inhibition (GI50), RS4; 11; format: cell-based, human; conditions: Homo sapiens, RS4-11; Cell lines of leukemia; read-out: GI 50 RS4: 11 FLT3 (WT)
# [6] = system: K562 (FLT3 negative expression, positive expression of BCR-ABL fusion protein); test: In vitro growth inhibition (GI50), K562; format: cell-based; conditions: Homo sapiens, Cell lines of leukemia, read-out: GI 50 K562 BCR-ABL
# [7] = system: RAMOS (positive expression of Brutons tyrosine protein kinase); test: In vitro growth inhibition (GI50), RAMOS; format: cell-based; conditions: Homo sapiens, Cell lines of leukemia, read-out: GI 50 Ramos BTK
# U937 (FLT3 wild-type) = test: In vitro growth inhibition (GI50), U937; format: cell-based; conditions: Homo sapiens, U-937; Cell lines of leukemia; read-out: GI 50 U937 FLT 3(WT)
# [8] = system: Kasumi-1 (c-Kit N822K mutant type); test: In vitro growth inhibition (GI50), Kasumi-1; format: cell-based; conditions: Homo sapiens, Cell lines of leukemia, read-out: GI 50 Kasumi-1 Kit (N822K)
# Outline: (§2)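 Cells in RPMI1640 with 10% FBS, seeded at 5–10×10^4 cells/mL, exposed next day to compound at 5,000 nM down to 0.01 nM (2- or 10-fold dilutions, ≤1% solvent) for 3–5 days at 37 °C. CCK8 absorbance at 450 nm, growth rate relative to pre-treatment and solvent controls, GI50 from concentration–growth curve.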
# [9] = system: KG-1 (expressing FGFR1OP2-FGFR1 fusion protein); test: In vitro growth inhibition (GI50), KG-1; format: cell-based; conditions: Homo sapiens; Cell lines of leukemia; read-out: GI 50 KG-1 FGFR1OP 2-FGFR1
# HL-60 (FLT3 wild type) = test: In vitro growth inhibition (GI50), HL-60; format: cell-based; conditions: Homo sapiens, Cell lines of leukemia, read-out: GI 50 HL60 FLT3 (WT)
# Outline: as §2
# [10] = system: OCI-AML3 (NPMc+ mutant type); test: In vitro growth inhibition (GI50), OCI-AML3; format: cell-based; conditions: Homo sapiens, OCI-AML-3; Cell lines of leukemia; read-out: GI 50 OCI- AML3 NPMc+
# [11] = Bidirectional transmembrane transport and P-gp efflux in Caco-2 monolayer cell model; format: in vitro ADME; conditions: human
# Method: (§3) The Caco-2 cell transport experiment was performed using compound 77 of the present invention as a representative example.
# (§4) Main procedure: Caco-2 cells (ATCC, HTB-37) were cultured in high-glucose DMEM culture medium (Hyclone) containing 10% fetal calf serum (GIBCO) and penicillin-streptomycin (100 units/mL each) (Sigma). Cells were cultured at 37° C. in an incubator containing 5% CO2. In the transport experiment, Caco-2 cells were inoculated on a filter of a 12-well Transwell plate at a density of 2×10^5 cells/well (Coming Costar, catalog #3401, 1.12 cm^2, 0.4 um of pore size). After inoculation, the Caco-2 cells would form intact cell monolayers after 21 days, including P-gp efflux transporter expression and transepithelial cell resistance (TEER) formation. During the period, the culture medium was replaced once every other day. The volume of culture medium at the transwell membrane Apical Side (A) and Basolateral Side (B) were 0.5 mL and 1.5 mL, respectively. Before the transport experiment (day 21), the preheated HBSS buffer (137 mM NaCl, 4.17 mM NaHCO3, 0.34 mM Na2HPO4, 5.37 mM KCl, 0.44 mM KH2PO4, 1.26 mM CaCl2, 0.49 mM MgCl2, 0.41 mM MgSO4, 5.55 Mm D-Glucose, 10 mM HEPES, pH 7.4) was used firstly to wash Caco-2 cell monolayers for three times, and placed to at 37° C. for incubation for 30 minutes, then TEER values were determined using a cell resistometer (Millicell-ERS2) to confirm the integrity and compactness of the cell monolayers. When the HBSS buffer solution on the transmembrane A-side or B-side was replaced with the test compound, the transport experiment was started.
# (§5) Finally, after incubation at 37° C. for 2 hours, the transport experiment was terminated and 50 uL of sample solution was taken from both sides of the Transwell filter membrane separately and added to 100 μL of acetonitrile comprising internal standard compound and mixed well, then centrifuged at 13000 rpm, 4° C. for 10 min, and finally 10 μL (or a specific volume) of supernatant was used for LC-MS/MS sample analysis.
# (§6) For each compound, transport experiments in the A-B and B-A directions had three replicates, i.e. n=3.
# (§7) LC-MS/MS Sample Analysis: The high performance liquid chromatography (HPLC) system used in this research consisted of two pumps (Shimadzu LC-20AD) and an autosampler (Shimadzu SIL-20AC). The HPLC system was connected in series with an API 4000 triple quadrupole mass spectrometer (Applied Biosystems). The API 4000 triple quadrupole mass spectrometer was equipped with an electrospray ionization (ESI) source. Ultrapurified nitrogen was used as curtain gas, GAS1, GAS2, and collision gas, at flow rates of 20 L/h, 55 L/h, 65 L/h, and 6 L/hr, respectively. The atomization temperature of the ion source was set to 500° C. Data was collected using the software Analyst 1.5.
# (§8) Data analysis: The apparent permeability coefficient (Papp) can be calculated by the rate at which a compound permeates the monolayer of Caco-2 cells. Its value is related to the absorption of the compound in vivo. After concentrations at A side and B side were determined by LC-MS/MS, the Papp value in the A-B or B-A direction was calculated according to the following formula: Papp(A→B) or Papp(B→A)=(dQ/dt)/(A*C0)=(C2h*V)/(t*π2*C0)
# (§9) In the above formula, dQ/dt is the permeation rate, i.e. the amount of compound that permeated in the dt time, C0 is the initial concentration of drug on the administration side, and A is the surface area of the cell monolayer, i.e. the membrane area.
# (§10) After obtaining the Papp (A→B) and Papp (B→A) values of the compound, the Efflux Ratio (ER) of the compound could be calculated by the following formula: Efflux Ratio(ER)=Papp(B−A)/Papp(A−B).
# (§11) When the ratio of efflux was >2, the compound could be considered as the substrate of the efflux transporter.
# P-gp = test: as above; format: in vitro ADME; conditions: human, Caco-2, pH 7.4; Concentration 10, Inhibitor − (without P-gp inhibitor GF120918); read-out: Efflux Ratio Papp (B→A)/Papp (A→B)
# Method: as §3, §4, §5, §6, §7, §8, §9, §10, §11
# rat plasma protein = test: Binding rate to plasma protein of rats (dialysis method); format: in vitro ADME; conditions: dialysis, 4 h, 37° C.; test substance 2 uM, positive control 1 uM
# Method: The binding rate of compound 77 of the present invention to plasma protein at a rat plasma concentration of 2 uM was evaluated by dialysis method.
# Procedure: The DMSO stock solution of compound 77 (10 mM) or the positive control propranolol (USP) was added to 500 uL of blank plasma. The final concentration of test substance in the plasma was 2 uM, and the final concentration of the positive control was 1 uM, in triplicate. 300 uL of prepared plasma samples was added to the plasma chamber, and 500 uL of dialysis buffer was added to the buffer chamber (phosphate buffer solution PBS contained 100 mM sodium phosphate and 150 mM sodium chloride, PH 7.2), sealed, and incubated for 4 h while shaking at 100 rpm, 37° C. After incubation, 50 uL sample was taken from the plasma chamber and buffer chamber, and 50 uL of PBS was added to plasma chamber samples, and 50 uL of blank plasma was added to the buffer chamber samples. Immediately, 3-fold methanol solution containing internal standard was added, to precipitate plasma protein. After centrifugation, the supernatant was taken for LC/MS/MS analysis. The plasma protein binding rate was calculated according to the following formula: % free state=(peak area ratio in the buffer chamber/the peak area ratio in the plasma chamber)×%, % binding state=100%−% free state.
smiles,measurement,setting,value
"CC(C)(C)c1cc(NC(=O)Nc2ccc(-n3cnc4cc(OCCN5CCOCC5)ccc43)cc2)no1 [Compound 16 Hydrochloride, 1-(5-tert-butyl-isoxazol-3-yl)-3-{4-[5-(2-morpholin-4-yl-ethoxyl)-benzimidazol-1-yl]-phenyl}-urea]",Solubility,Solubility test; listed as 16 Hydrochloride,soluble (“soluble” means that 1 g of the test sample could be dissolved in 10-30 ml of water)
same,High temperature (60° C.),[1],stable
same,Lighting (4500 LX),[2],stable
same,High Humidity (90%),[3],stable
"COc1ccc2c(c1)ncn2-c1ccc(NC(=O)Nc2cc(C(C)(C)C)n[nH]2)cc1 [Compound 71 Mesylate, 1-(5-tert-butyl-2H-pyrazol-3-yl)-3-[4-(5-methoxyl-benzimidazol-1-yl)-phenyl]-urea]",Solubility,Solubility test; listed as 71 Mesylate,soluble (“soluble” means that 1 g of the test sample could be dissolved in 10-30 ml of water)
same,High temperature (60° C.),[1],stable
same,Lighting (4500 LX),[2],stable
same,High Humidity (90%),[3],stable
"COc1cc2ncn(-c3ccc(NC(=O)n4nc(C(C)(C)C)cc4N)cc3)c2cc1OC [Compound 129, 5-amino-3-tert-butyl-pyrazol-1-carboxylic acid [4-(5,6-dimethoxyl-benzimidazol-1-yl)-phenyl]-amide]",Solubility,Solubility test; listed as 129 Free base,"insoluble (“nearly insoluble or insoluble” means that 1 g of the test sample could not be completely dissolved in 10,000 ml of water)"
same,GI50,[4],1 to 10 nM
same,GI50,[5],1 to 10 nM
same,GI50,RS4; 11 (FLT3 wild type),> 1000 nM
same,GI50,[6],> 1000 nM
same,GI50,[7],> 1000 nM
same,GI50,U937 (FLT3 wild-type),> 1000 nM
same,GI50,[8],> 1000 nM
same,GI50,[9],> 1000 nM
same,GI50,HL-60 (FLT3 wild type),> 1000 nM
same,GI50,[10],> 1000 nM
C[C@H]1O[C@@H](O[C@H]2[C@@H](O)C[C@H](O[C@H]3[C@@H](O)C[C@H](O[C@H]4CC[C@@]5(C)[C@H](CC[C@@H]6[C@@H]5C[C@@H](O)[C@]5(C)[C@@H](C7=CC(=O)OC7)CC[C@]65O)C4)O[C@@H]3C)O[C@@H]2C)C[C@H](O)[C@@H]1O [Digoxin],Papp A→B at 2 h,"[11]; Caco-2, pH 7.4, Caco-2 monolayer cell model, transmembrane permeability, read-out: Papp(A→B) value (conclusions under the table)",< 1 ×10⁻⁶ cm/s
same,Papp B→A at 2 h,"[11]; Caco-2, pH 7.4, Concentration 10, Inhibitor − (without P-gp inhibitor GF120918)",20.4 ×10⁻⁶ cm/s
same,Papp A→B at 2 h,"[11]; Caco-2, pH 7.4, Concentration 10, Inhibitor − (without P-gp inhibitor GF120918), read-out: Papp (A→B)",0.06 ×10⁻⁶ cm/s
same,efflux ratio at 2 h,P-gp,322
"CC(C)NCC(O)COc1cccc2ccccc12 (stereo not drawn) [propranolol, reference compound]",binding rate to the rat plasma protein,rat plasma protein,90.11%
